Results taken from PubChem BioAssay (NCI).
Values joined by “and” are separate entries in the source; they are usually repeats but may differ in a detail not shown here. Equal entries are not always repeated.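 The compound was tested at five concentrations on cells cultured in 96-well plates, with a 48-hour exposure period. The concentration for 50% growth inhibition is given as GI50. TGI: total growth inhibition.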

Assays:
Test in all cases: growth of human tumour cells (NCI), 48 h
SF-268 CNS = test system: SF-268 CNS
SNB-75 CNS = test system: SNB-75 CNS
MDA-MB-435 = test system: MDA-MB-435
NCI/ADR-RES ovarian = test system: NCI/ADR-RES ovarian
M14 melanoma = test system: M14 melanoma
PC-3 prostate = test system: PC-3 prostate
SW-620 colon = test system: SW-620 colon
SF-295 CNS = test system: SF-295 CNS

Cc1cn2c(=O)n(c1=O)Cc1ccccc1C2
GI50 (SF-268 CNS): 38600 nM
TGI (SF-268 CNS): > 100 µM
GI50 (SNB-75 CNS): 85900 nM
TGI (SNB-75 CNS): > 100 µM
GI50 (MDA-MB-435): > 100000 nM
TGI (MDA-MB-435): > 100 µM
GI50 (NCI/ADR-RES ovarian): > 100 µM
TGI (NCI/ADR-RES ovarian): > 100 µM
GI50 (M14 melanoma): > 100000 nM
TGI (M14 melanoma): > 100 µM
GI50 (PC-3 prostate): > 100000 nM
TGI (PC-3 prostate): > 100 µM
GI50 (SW-620 colon): > 100000 nM
TGI (SW-620 colon): > 100 µM
GI50 (SF-295 CNS): > 100000 nM
TGI (SF-295 CNS): > 100 µM

COc1ccc2c(c1)C(=O)c1c-2n(CCCN2CCOCC2)c(=O)c2cc([N+](=O)[O-])ccc12
GI50 (SF-268 CNS): < 10 nM
TGI (SF-268 CNS): > 100 µM
GI50 (SNB-75 CNS): < 10 nM
GI50 (MDA-MB-435): < 10 nM
TGI (MDA-MB-435): 11 µM
GI50 (NCI/ADR-RES ovarian): < 0.01 µM
TGI (NCI/ADR-RES ovarian): < 0.0279 µM
GI50 (M14 melanoma): < 10 nM
TGI (M14 melanoma): < 0.01 µM
GI50 (PC-3 prostate): < 10 nM
TGI (PC-3 prostate): > 31.9 µM
GI50 (SW-620 colon): < 10 nM
TGI (SW-620 colon): 9.2 µM
GI50 (SF-295 CNS): < 10 nM

Oc1ccc(CN(Cc2ccc(C(F)(F)F)cc2)Cc2ccc(O)c3ncccc23)c2cccnc12
GI50 (SF-268 CNS): 48.7 nM
TGI (SF-268 CNS): > 100 µM
GI50 (SNB-75 CNS): 17.2 nM
TGI (SNB-75 CNS): > 100 µM
GI50 (MDA-MB-435): 21.4 nM
TGI (MDA-MB-435): > 100 µM
GI50 (NCI/ADR-RES ovarian): < 0.01 µM
TGI (NCI/ADR-RES ovarian): > 100 µM
GI50 (M14 melanoma): 32.6 nM
TGI (M14 melanoma): 2.17 µM
GI50 (PC-3 prostate): < 14.6 nM
TGI (PC-3 prostate): > 100 µM
GI50 (SW-620 colon): 25.1 nM
TGI (SW-620 colon): > 100 µM
GI50 (SF-295 CNS): 18.2 nM
TGI (SF-295 CNS): > 100 µM

CNCCOC(=O)/C=C1/CCC2C(C(O)CC3C(C)(C(=O)OC)CCCC23C)C1C (configuration not stated)
GI50 (SF-268 CNS): < 10 nM
TGI (SF-268 CNS): 0.02 µM
GI50 (SNB-75 CNS): 18.1 nM
TGI (SNB-75 CNS): 0.0397 µM
GI50 (MDA-MB-435): 28.9 nM
TGI (MDA-MB-435): 0.0881 µM
GI50 (NCI/ADR-RES ovarian): 0.0185 µM
TGI (NCI/ADR-RES ovarian): 0.0378 µM
GI50 (M14 melanoma): 20.2 nM
TGI (M14 melanoma): 0.0424 µM
GI50 (PC-3 prostate): 21.4 nM
TGI (PC-3 prostate): 0.202 µM
GI50 (SW-620 colon): 18 nM
TGI (SW-620 colon): 0.0394 µM
GI50 (SF-295 CNS): 20.9 nM
TGI (SF-295 CNS): 0.0452 µM

COc1cc2c(cc1OCCCN1CCN(c3cc(=O)oc4c(C)c(OC)ccc34)CC1)N=C[C@@H]1CCCN1C2=O
GI50 (SF-268 CNS): 910 nM
TGI (SF-268 CNS): > 20.9 µM
GI50 (SNB-75 CNS): 866 nM
TGI (SNB-75 CNS): 3.22 µM
GI50 (MDA-MB-435): 1590 nM
TGI (MDA-MB-435): 3.79 µM
GI50 (NCI/ADR-RES ovarian): 16.6 µM
TGI (NCI/ADR-RES ovarian): > 88.5 µM
GI50 (M14 melanoma): 1240 nM
TGI (M14 melanoma): 2.69 µM
GI50 (PC-3 prostate): 1190 nM
TGI (PC-3 prostate): 12.8 µM
GI50 (SW-620 colon): 1810 nM
TGI (SW-620 colon): > 100 µM
GI50 (SF-295 CNS): 2490 nM
TGI (SF-295 CNS): > 30.4 µM

COc1cc(-c2n/c(=C\c3c(O)[nH]c4ccccc34)cc3c2=Nc2ccccc2-3)cc(OC)c1OC
GI50 (SF-268 CNS): 1390 nM
TGI (SF-268 CNS): > 100 µM
GI50 (SNB-75 CNS): 381 nM
TGI (SNB-75 CNS): > 100 µM
GI50 (MDA-MB-435): 1680 nM
TGI (MDA-MB-435): 6.48 µM
GI50 (NCI/ADR-RES ovarian): 1.62 µM
TGI (NCI/ADR-RES ovarian): > 31.5 µM
GI50 (M14 melanoma): 785 nM
TGI (M14 melanoma): 4.26 µM
GI50 (PC-3 prostate): 2190 nM
TGI (PC-3 prostate): > 100 µM
GI50 (SW-620 colon): 449 nM
TGI (SW-620 colon): > 100 µM
GI50 (SF-295 CNS): 666 nM
TGI (SF-295 CNS): > 38.4 µM

CO/N=C(/COc1c(-c2ccccc2)oc2ccccc2c1=O)c1ccc(F)cc1
GI50 (SNB-75 CNS): 28000 nM
TGI (SNB-75 CNS): 81.1 µM
GI50 (MDA-MB-435): > 100000 nM
TGI (MDA-MB-435): > 100 µM
GI50 (NCI/ADR-RES ovarian): 86.4 µM
TGI (NCI/ADR-RES ovarian): > 100 µM
GI50 (M14 melanoma): 30600 nM
TGI (M14 melanoma): > 100 µM
GI50 (PC-3 prostate): 31500 nM
TGI (PC-3 prostate): > 100 µM
GI50 (SW-620 colon): > 100000 nM
TGI (SW-620 colon): > 100 µM
GI50 (SF-295 CNS): 41100 nM
TGI (SF-295 CNS): > 100 µM

COc1cc2c3c(n(CCCNCCNCCCN)c(=O)c2cc1OC)-c1cc2c(cc1C3=O)OCO2
GI50 (SF-268 CNS): 1990 nM
TGI (SF-268 CNS): 11.4 µM
GI50 (SNB-75 CNS): 10300 nM
TGI (SNB-75 CNS): 26.7 µM
GI50 (MDA-MB-435): 3450 nM
TGI (MDA-MB-435): 15.6 µM
GI50 (NCI/ADR-RES ovarian): 21.1 µM
TGI (NCI/ADR-RES ovarian): 94.6 µM
GI50 (M14 melanoma): 3000 nM
TGI (M14 melanoma): 12.5 µM
GI50 (PC-3 prostate): 13200 nM
TGI (PC-3 prostate): 56.3 µM
GI50 (SW-620 colon): 2030 nM
TGI (SW-620 colon): 10.7 µM
GI50 (SF-295 CNS): 2790 nM
TGI (SF-295 CNS): 17.4 µM

COc1cc2c3c(n(C)c(=O)c2cc1OC)-c1cc2c(cc1/C3=C/[C@H](N)CCCCN)OCO2
GI50 (SF-268 CNS): 315 nM
TGI (SF-268 CNS): 3.97 µM
GI50 (SNB-75 CNS): 3740 nM
TGI (SNB-75 CNS): 27.7 µM
GI50 (MDA-MB-435): 293 nM
TGI (MDA-MB-435): 4.69 µM
GI50 (NCI/ADR-RES ovarian): 5.19 µM
TGI (NCI/ADR-RES ovarian): > 27.1 µM
GI50 (M14 melanoma): 1590 nM
TGI (M14 melanoma): 4.55 µM
GI50 (PC-3 prostate): 2000 nM
TGI (PC-3 prostate): 27.5 µM
GI50 (SW-620 colon): 595 nM
TGI (SW-620 colon): > 37.9 µM
GI50 (SF-295 CNS): 401 nM
TGI (SF-295 CNS): 3.31 µM

CO/C(=N\N=C\c1cccc(C(F)(F)F)c1)c1ccncc1
TGI (SNB-75 CNS): 52.9 µM
GI50 (MDA-MB-435): 3330 nM
TGI (MDA-MB-435): 6.17 µM and 25.5 µM
GI50 (NCI/ADR-RES ovarian): 5.37 µM
TGI (M14 melanoma): 94.4 µM
TGI (PC-3 prostate): > 100 µM
TGI (SW-620 colon): > 100 µM
GI50 (SF-295 CNS): 7590 nM

Oc1cc(Cl)ccc1Cc1ccc(Cl)cc1O
GI50 (SF-268 CNS): 9440 nM
TGI (SF-268 CNS): 27.7 µM
GI50 (SNB-75 CNS): 13500 nM
TGI (SNB-75 CNS): 34.4 µM
GI50 (MDA-MB-435): 5370 nM
TGI (MDA-MB-435): 24.5 µM
GI50 (NCI/ADR-RES ovarian): 8.63 µM
TGI (NCI/ADR-RES ovarian): 25.4 µM
GI50 (M14 melanoma): 13500 nM
TGI (M14 melanoma): 26.3 µM
GI50 (PC-3 prostate): 6230 nM
TGI (PC-3 prostate): 83 µM
GI50 (SW-620 colon): 9730 nM
TGI (SW-620 colon): 21.4 µM
GI50 (SF-295 CNS): 6340 nM
TGI (SF-295 CNS): 24.6 µM

CCCCCCN1CCN(Cc2ccc(N(CC)CC)cc2)C(=O)C1=O
GI50 (SF-268 CNS): 6210 nM
TGI (SF-268 CNS): > 100 µM
GI50 (SNB-75 CNS): 1950 nM
TGI (SNB-75 CNS): 13.1 µM
GI50 (MDA-MB-435): 448 nM
TGI (MDA-MB-435): 2.38 µM
GI50 (NCI/ADR-RES ovarian): 2.72 µM
GI50 (M14 melanoma): 2300 nM
TGI (M14 melanoma): 9.08 µM
GI50 (PC-3 prostate): 2970 nM
TGI (PC-3 prostate): 54 µM
GI50 (SW-620 colon): 3070 nM
TGI (SW-620 colon): > 100 µM
GI50 (SF-295 CNS): 3020 nM
TGI (SF-295 CNS): > 100 µM

COc1ccc(C(=O)CC(c2ccc(OC)c(OC)c2)c2c(O)c3ccccc3oc2=O)cc1OC (configuration not stated)
TGI (SF-268 CNS): > 100 µM
TGI (SNB-75 CNS): > 100 µM
TGI (MDA-MB-435): > 100 µM
TGI (NCI/ADR-RES ovarian): > 100 µM
TGI (M14 melanoma): > 100 µM
TGI (PC-3 prostate): > 100 µM
TGI (SW-620 colon): > 100 µM
TGI (SF-295 CNS): > 100 µM

CCOC(=O)/C(=C\c1ccc(F)cc1)C(C)=O
TGI (SF-268 CNS): > 100 µM
TGI (SNB-75 CNS): 74.2 µM
TGI (MDA-MB-435): > 100 µM
TGI (NCI/ADR-RES ovarian): > 100 µM
TGI (M14 melanoma): 60.9 µM
TGI (PC-3 prostate): 38.2 µM
TGI (SW-620 colon): > 100 µM
TGI (SF-295 CNS): 79.3 µM

N/C(=N\c1nc2ccccc2s1)NC(=O)Nc1cccc2ccccc12
GI50 (SF-268 CNS): 2720 nM
TGI (SF-268 CNS): > 100 µM
GI50 (SNB-75 CNS): 198 nM
TGI (SNB-75 CNS): 1.1 µM
GI50 (MDA-MB-435): 32.1 nM
TGI (MDA-MB-435): 0.143 µM
GI50 (NCI/ADR-RES ovarian): 0.144 µM
TGI (NCI/ADR-RES ovarian): 1.34 µM
GI50 (M14 melanoma): 230 nM
TGI (M14 melanoma): > 100 µM
GI50 (PC-3 prostate): 318 nM
TGI (PC-3 prostate): > 100 µM
GI50 (SW-620 colon): 260 nM
TGI (SW-620 colon): > 100 µM
GI50 (SF-295 CNS): 173 nM
TGI (SF-295 CNS): 1.83 µM

CN1CCC(n2[nH]c(-c3ccccc3)c(Cc3ccccc3)c2=O)CC1
TGI (SF-268 CNS): > 100 µM
TGI (SNB-75 CNS): > 100 µM
TGI (MDA-MB-435): > 100 µM
TGI (NCI/ADR-RES ovarian): > 100 µM
TGI (M14 melanoma): > 100 µM
TGI (PC-3 prostate): > 100 µM
TGI (SW-620 colon): > 100 µM
TGI (SF-295 CNS): > 100 µM

c1cncc(CNc2ncn[nH]2)c1
TGI (SF-268 CNS): > 100 µM
TGI (SNB-75 CNS): > 100 µM
TGI (MDA-MB-435): > 100 µM
TGI (NCI/ADR-RES ovarian): > 100 µM
TGI (M14 melanoma): > 100 µM
TGI (PC-3 prostate): > 100 µM
TGI (SW-620 colon): > 100 µM
TGI (SF-295 CNS): > 100 µM
